Laboratory results published in patent publication US12144864B2, “Tubulysins and protein-tubulysin conjugates” (Regeneron Pharmaceuticals, Inc., priority 2018, dated 2024).
Where two headings read alike, the source gives them in different places.

Columns and labels:
[1] = system: HL60/MX2 cells; assay: Cytotoxicity in panel of MDR cell lines, HL60/MX2 (72 h and 144 h); format: cell-based, human; conditions: for IC50: Homo sapiens
Procedure: (§1) To test the ability of the disclosed tubulysin payloads to kill human cell lines, an in vitro cytotoxicity assay was performed. In vitro cytotoxicity of the disclosed payloads, as well as reference compounds, were evaluated using the CellTiter-Glo Assay Kit (Promega, Cat #G7573), in which the quantity of ATP present is used to determine the number of viable cells in culture. For the assay, C4-2, HEK293, or T47D cells were seeded at 4000 cells/well on Nunclon white 96-well plates in complete growth medium (DME high glucose:Ham's F12 at 4:1, 10% FBS, 100 units/ml Penicillin, 100 ug/ml streptomycin, 53 ug/ml glutatmine, 10 ug/ml insulin, 220 ng/ml biotin, 12.5 pg/ml T3, 12.5 ug/ml Adenine, 4 ug/ml transferrin for C42 cells; DME high glucose, 10% FBS, 100 units/ml Penicillin, 100 ug/ml streptomycin, 53 ug/ml glutatmine for HEK293; RPMI, 10% FBS, 100 units/ml Penicillin, 100 ug/ml streptomycin, 53 ug/ml glutatmine, 10 ug/ml insulin, 10 mM HEPEs, 200 nM Sodium Pyruvate for T47D cells) and grown overnight at 37° C. in 5% CO2. For cell viability curves, 1:3 serially diluted payloads were added to the cells at final concentrations ranging from 100 nM to […], including a no treatment control group, and were then incubated for 5 days. After the 5-day incubation, cells were incubated at room temperature with 100 μL of CellTiter-Glo reagents for 10 minutes. Relative luminescence units (RLU) were determined on a Victor plate reader (PerkinElmer). The IC50 values were determined from a four-parameter logistic equation over a 10-point response curve (GraphPad Prism). All IC50 values are expressed in molar (M) concentration. The percent cell killing (% kill) at the maximum concentration tested was estimated from the following formula (100−% viable cells). Averages±standard deviation (SD) are included where replicate experiments were performed.
(§2) To further test the ability of the disclosed tubulysin payloads, a cytotoxicity assay was performed using a panel of multidrug resistant (MDR) cell lines. In vitro cytotoxicity of the disclosed payloads as well as reference compounds were similarly evaluated as described above except using HCT-15 cells, a colorectal carcinoma cell line; H69AR, a doxorubicin resistant MDR derivative of the small cell lung cancer carcinoma cell line NCI-H69; MES-SA/MX2, a mitoxantrone resistant MDR derivative of the uterine sarcoma cell line MES-SA; and HL60/MX2, a mitoxantrone resistant MDR derivative of the acute promyelocytic leukemia cell line HL60. In these assays, cytotoxicity was evaluated in normal growth media (RPMI, 10% FBS, 100 units/ml Penicillin, 100 ug/ml streptomycin, and 53 ug/ml glutatmine for HCT-15 and HL60/MX2; RPMI, 20% FBS, 100 units/ml Penicillin, 100 ug/ml streptomycin, and 53 ug/ml glutatmine for H69-AR; Waymouths's:McCoy's (1:1), 10% FBS, 100 units/ml Penicillin, 100 ug/ml streptomycin, and 53 ug/ml glutatmine for MES-SA/MX2) with 1000 cells per well following 72 h and 144 h incubation with payloads.

[2] = system: C4-2 cells; assay: Cell-based killing assay of payloads (CellTiter-Glo), C4-2 cells; parameters: species or system human; conditions: 5-day incubation; for IC50: Homo sapiens, C4-2, 120 h, average ± SD where replicates; for C4-2 % Kill: at maximum concentration tested (100 − % viable cells)
Procedure: as §1

[3] = system: MES-SA/MX2 cells; assay: Cytotoxicity in panel of MDR cell lines, MES-SA/MX2 (72 h and 144 h); format: cell-based, human; conditions: for IC50: Homo sapiens
Procedure: as §1, §2

[4] = system: HCT15 cells; assay: cells; format: cell-based, human; conditions: HCT15 cells
Procedure: as §1
In vitro cytotoxicity of the disclosed payloads as well as reference compounds were evaluated similarly as described above except using 1000 HCT15 cells, a colorectal carcinoma cell line, in growth medium (RPMI, 10% FBS, 100 units/ml Penicillin, 100 ug/ml streptomycin, 53 ug/ml glutatmine) with or without 5 ug/mL of Verapamil.

[5] = system: HCT-15 cells; assay: Cytotoxicity in panel of MDR cell lines, HCT-15 (72 h and 144 h); format: cell-based, human; conditions: for IC50: Homo sapiens
Procedure: as §1, §2

[6] = system: H69AR cells; assay: Cytotoxicity in panel of MDR cell lines, H69AR (72 h and 144 h); format: cell-based, human; conditions: for IC50: Homo sapiens
Procedure: as §1, §2

[7] = 72 h incubation, read-out: HL60/MX2 IC50 72 h
[8] = 144 h incubation, read-out: HL60/MX2 IC50 144 h
[9] = 72 h incubation, read-out: MES-SA/MX2 IC50 72 h
[10] = 144 h incubation, read-out: MES-SA/MX2 IC50 144 h
[11] = 72 h incubation, read-out: HCT-15 IC50 72 h
[12] = 144 h incubation, read-out: HCT-15 IC50 144 h
[13] = 72 h incubation, read-out: H69AR IC50 72 h
[14] = 144 h incubation, read-out: H69AR IC50 144 h

Row | Compound | HL60/MX2 % Kill 72 h ([1]; 72 h incubation) [%] | HL60/MX2 % Kill 144 h ([1]; 144 h incubation) [%] | IC50 [1, 7] [nM] | IC50 [1, 8] [nM] | IC50 [2] [nM] | C4-2 % Kill [2] [%] | MES-SA/MX2 % Kill 72 h ([3]; 72 h incubation) [%] | MES-SA/MX2 % Kill 144 h ([3]; 144 h incubation) [%] | IC50 [3, 9] [nM] | IC50 [3, 10] [nM] | HCT-15 % Kill 72 h ([5]; 72 h incubation) [%] | HCT-15 % Kill 144 h ([5]; 144 h incubation) [%] | IC50 [5, 11] [nM] | IC50 [5, 12] [nM] | H69AR % Kill 72 h ([6]; 72 h incubation) [%] | H69AR % Kill 144 h ([6]; 144 h incubation) [%] | IC50 [6, 13] [nM] | IC50 [6, 14] [nM] | other results
1 | CC[C@H](C)[C@H](NC(=O)[C@H]1CCCCN1C)C(=O)N(CCCCc1cn(Cc2ccccc2)nn1)[C@H](C[C@@H](OC(C)=O)c1nc(C(=O)N[C@@H](Cc2ccc(N)cc2)CC(C)(C)C(=O)O)cs1)C(C)C [IVo, (S)-4-(2-((1R,3R)-1-Acetoxy-3-((2S,3S)—N-(4-(1-benzyl-1H-1,2,3-triazol-4-yl)butyl)-3-methyl-2-((R)-1-methylpiperidine-2-carboxamido)pentanamido)-4-methylpentyl)thiazole-4-carboxamido)-5-(4-aminophenyl)-2,2-dimethylpentanoic acid] | 98.1 | 100 | 0.0376 | < 0.015 | 0.262 | 93.4 | 98.9 | 99.9 | 1.12 | 2.96 | 97.3 | 99.7 | 0.247 | 0.348 | 96.2 | 99.1 | 0.779 | 1.27 | HCT-15 + verapamil % Kill ([4]; with 5 ug/mL Verapamil, maximum % cell killing): 97.6%; IC50 ([4]; with 5 ug/mL Verapamil, read-out: HCT-15 + verapamil IC50): 0.109 nM; HCT-15 % Kill ([4]; without Verapamil, maximum % cell killing): 98.6%; IC50 ([4]; Homo sapiens, HCT-15, without Verapamil, read-out: HCT-15 IC50): 0.37 nM
2 | CCCCCCN(C(=O)[C@@H](NC(=O)[C@H]1CCCCN1C)[C@@H](C)CC)[C@H](C[C@@H](OC(C)=O)c1nc(C(=O)NC(Cc2ccc(F)c(NC)c2)CC(C)(C)C(=O)O)cs1)C(C)C (stereo partly drawn) [IVt, 4-(2-((1R,3R)-1-acetoxy-3-((2S,3S)—N-hexyl-3-methyl-2-((R)-1-methylpiperidine-2-carboxamido)pentanamido)-4-methylpentyl)thiazole-4-carboxamido)-5-(4-fluoro-3-(methylamino)phenyl)-2,2-dimethylpentanoic acid] | 98.4 | 100 | < 0.015 | < 0.015 | 0.11 | 94.2 | 99.3 | 100 | 0.447 | 0.74 | 97.6 | 99.8 | 0.143 | 0.18 | 96.3 | 99.3 | 0.486 | 0.819 | –
3 | CCCCCCN(C(=O)[C@@H](NC(=O)[C@H]1CCCCN1C)[C@@H](C)CC)[C@H](C[C@@H](OC(C)=O)c1nc(C(=O)NC(Cc2ccc(F)c(N)c2)CC(C)(C)C(=O)O)cs1)C(C)C (stereo partly drawn) [IVu, 4-({2-[(1R,3R)-1-(Acetyloxy)-3-[(2S,3S)—N-hexyl-3-methyl-2-{[(2R)-1-methylpiperidin-2-yl]formamido}pentanamido]-4-methylpentyl]-1,3-thiazol-4-yl}formamido)-5-(3-amino-4-fluorophenyl)-2,2-dimethylpentanoic acid] | 98 | 99.9 | < 0.015 | < 0.015 | 0.114 | 93.9 | 98.8 | 100 | 0.535 | 1.21 | 97.9 | 99.8 | 0.134 | 0.242 | 96.4 | 99 | 0.634 | 1.04 | –
